# Measurements reported in paper PMC4331650 (Biochimica et Biophysica Acta, 2014).
# Changes are numbered by the printed parent chain.
# Key:
# Assay type in all cases: cell-based
# [1] = molecular target: T1, N257A CLC-K1/barttin (Rattus norvegicus, UniProt Q06393, N257A); test: NFA effect on N257A CLC-K1 with barttin, voltage clamp in Xenopus oocytes; conditions: 200 μM NFA
# T1 sequence (Q06393 1-687 N257A): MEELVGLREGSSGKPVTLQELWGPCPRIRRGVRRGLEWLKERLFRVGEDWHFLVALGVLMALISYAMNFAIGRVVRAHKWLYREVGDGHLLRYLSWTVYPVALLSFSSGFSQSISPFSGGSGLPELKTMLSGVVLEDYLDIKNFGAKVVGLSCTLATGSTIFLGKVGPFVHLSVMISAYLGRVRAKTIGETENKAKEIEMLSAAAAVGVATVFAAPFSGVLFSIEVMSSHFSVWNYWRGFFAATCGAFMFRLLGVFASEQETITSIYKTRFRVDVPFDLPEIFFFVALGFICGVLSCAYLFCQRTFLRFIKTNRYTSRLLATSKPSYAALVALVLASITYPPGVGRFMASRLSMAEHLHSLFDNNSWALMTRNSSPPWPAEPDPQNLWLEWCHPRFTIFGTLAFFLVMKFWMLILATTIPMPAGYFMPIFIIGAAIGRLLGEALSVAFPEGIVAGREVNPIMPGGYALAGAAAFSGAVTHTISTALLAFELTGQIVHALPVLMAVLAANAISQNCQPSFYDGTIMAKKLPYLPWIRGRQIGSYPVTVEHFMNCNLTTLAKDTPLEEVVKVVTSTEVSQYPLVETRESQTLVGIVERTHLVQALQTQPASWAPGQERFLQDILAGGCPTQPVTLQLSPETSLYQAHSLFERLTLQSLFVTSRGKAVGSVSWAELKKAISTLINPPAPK
# T1 sequence (Q8WZ55 1-320 Y98A partner): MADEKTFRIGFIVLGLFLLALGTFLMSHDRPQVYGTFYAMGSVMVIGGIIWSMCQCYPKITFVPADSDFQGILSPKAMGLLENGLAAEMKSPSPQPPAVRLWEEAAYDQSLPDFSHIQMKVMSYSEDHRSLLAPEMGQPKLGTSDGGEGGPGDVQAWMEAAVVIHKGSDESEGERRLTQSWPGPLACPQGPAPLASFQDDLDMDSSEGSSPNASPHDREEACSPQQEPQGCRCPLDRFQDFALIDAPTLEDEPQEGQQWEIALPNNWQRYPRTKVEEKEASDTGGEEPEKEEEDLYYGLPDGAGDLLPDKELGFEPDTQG
# [2] = molecular target: T2, F256A CLC-Ka (Homo sapiens, UniProt P51800, F256A); conditions: 200 μM NFA, 60 mV
# T2 sequence (P51800 1-687 F256A): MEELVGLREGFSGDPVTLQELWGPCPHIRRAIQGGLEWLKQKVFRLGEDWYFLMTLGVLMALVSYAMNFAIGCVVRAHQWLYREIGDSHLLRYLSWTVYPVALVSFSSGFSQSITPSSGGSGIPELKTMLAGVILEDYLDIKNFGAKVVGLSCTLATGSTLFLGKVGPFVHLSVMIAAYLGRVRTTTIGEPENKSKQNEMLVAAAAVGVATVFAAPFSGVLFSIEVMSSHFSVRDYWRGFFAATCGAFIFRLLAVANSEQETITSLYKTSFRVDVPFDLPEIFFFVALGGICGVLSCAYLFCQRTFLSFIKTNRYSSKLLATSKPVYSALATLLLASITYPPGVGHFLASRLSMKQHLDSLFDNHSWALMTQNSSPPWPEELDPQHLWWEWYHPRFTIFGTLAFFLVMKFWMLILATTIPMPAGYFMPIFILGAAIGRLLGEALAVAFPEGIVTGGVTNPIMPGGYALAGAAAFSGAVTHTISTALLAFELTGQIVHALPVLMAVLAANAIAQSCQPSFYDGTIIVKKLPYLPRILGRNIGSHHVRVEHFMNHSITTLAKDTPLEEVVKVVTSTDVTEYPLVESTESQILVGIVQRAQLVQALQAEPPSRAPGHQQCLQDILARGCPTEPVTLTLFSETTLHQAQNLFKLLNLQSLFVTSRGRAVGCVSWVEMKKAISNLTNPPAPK
# T2 sequence (Q8WZ55 1-320 Y98A partner): T1 sequence (Q8WZ55 1-320 Y98A partner)
# [3] = molecular target: T3, CLC-K1/barttin (Rattus norvegicus, UniProt Q06393); test: NFA effect on WT CLC-K1/barttin, voltage clamp in Xenopus oocytes
# T3 sequence (Q06393 1-687): T1 sequence (Q06393 1-687 N257A) with A257N
# T3 sequence (Q8WZ55 1-320 Y98A partner): T1 sequence (Q8WZ55 1-320 Y98A partner)
compound,measurement,setting,value
"O=C(O)c1cccnc1Nc1cccc(C(F)(F)F)c1 [NFA, niflumic acid]",sensitivity to NFA compared with WT,[1],only weakly more sensitive
same,average current increase,"[2]; SD, n = 5 patches",39 +/− 13
same,single channel current in NFA (average),[2]; n = 3,1.75 ± 0.10 pA
same,distance of Gaussian components of the amplitude histogram in NFA,[2]; patch of Fig. 4,1.8 pA
same,increase of mean current in the patch,[2]; the single patch shown in Fig. 4,about 53 fold
same,currents relative to control conditions,[3]; 10 μM NFA,about 80%
same,currents relative to control conditions,[3]; 200 μM NFA,~45%
